According to publication PMC4117768, “Conjugation with polyamines enhances the antibacterial and anticancer activity of chloramphenicol” (Nucleic Acids Research, 2014):
Read-outs that look alike come from different tables or passages of the source. Marks after values point to notes of the source that are not given here.

What was measured:
[1] = test system: complex C (poly(U)-programmed ribosomes from E. coli bearing Ac[3H]Phe-tRNA at the P-site), peptidyl transferase; assay: Inhibition of AcPhe-puromycin synthesis (puromycin reaction, peptide bond formation); type: biochemical; conditions: for Ki: 25°C, buffer A; for koff: isomerization C*I to CI, non linear regression fitting; for potency relative to CAM, based on Kik7/(k6 + k7): overall two-step inhibition of the puromycin reaction
Procedure: Isolation of 70S ribosomes from E. coli K12 cells and preparation of Ac[^3H]Phe-tRNA^Phe charged to 80% were performed, as described previously ([23]). The post-translocation complex of poly(U)-programmed ribosomes (complex C), bearing tRNA^Phe at the E-site and Ac[^3H]Phe-tRNA at the P-site was prepared in buffer A (100 mM Tris-HCl pH 7.2, 6 mM (CH3COO)2Mg, 100 mM NH4Cl and 6 mM 2-mercaptoethanol). The percentage of active ribosomes in AcPhe-tRNA binding was 72%. This ribosomal population was more than 90% reactive toward puromycin.
The reaction between complex C and excess puromycin (S), a pseudo-substrate which binds to the ribosomal A-site, was performed at 25°C in buffer A and analyzed as described in detail elsewhere ([11]). Briefly, since the reaction followed first-order kinetics, the first-order rate constant kobs at each concentration of puromycin was determined by fitting the corrected x-values into Equation ([1]), (1) where x is the product Ac[^3H]Phe-puromycin expressed as the percentage of complex C radioactivity added in the reaction mixture and t the time of the reaction. kobs is related to the puromycin concentration, [S], by the relationship, (2) where kcat is the catalytic rate constant of PTase and KS the affinity constant of puromycin for complex C.
In the presence of CAM–polyamine conjugates, biphasic logarithmic time plots were obtained. The slope of the straight line through the origin was taken as the value of the apparent rate constant, kobs(early), at the early phase of the reaction, while the slope of the second straight line was taken as the value of the rate constant, kobs(late), at the late phase of the reaction.

wild-type E. coli = assay: Growth inhibition of bacterial cell cultures; type: cell-based; conditions: for IC50: Escherichia coli, read-out: IC50 (inhibit the growth by half); for IC50/IC50(puro): wild-type E. coli, IC50(puro) = concentration causing 50% inhibition in peptide-bond formation at 2 mM puromycin
Procedure: (§1) S. aureus or E. coli cells (400 μl of a 0.700 OD560 preculture) containing wild-type or mutant ribosomes were added in 3.6 ml of LB (Luria Broth) medium and grown at 37°C in the presence or absence of CAM or PA–CAM conjugates until the optical density of the control culture (grown in the absence of drug) reached the value 0.700 at 560 nm. From the growth curves, the IC50 value for each strain was estimated as the concentration of the drug that is required to inhibit the growth by half.

wild-type S. aureus = assay: Growth inhibition of bacterial cell cultures; type: cell-based; conditions: Staphylococcus aureus, read-out: IC50 (inhibit the growth by half)
Procedure: as §1

[2] = test system: E. coli (A2058G) TA531 cells with pKK35 plasmid, mutated 23S rRNA; assay: Growth inhibition of bacterial cell cultures, CAM-resistant mutant; type: cell-based; conditions: Escherichia coli, read-out: IC50 (inhibit the growth by half)
Source text: (§2) CAM free base [D-(-)threo-1-(p-nitrophenyl)-2-amino-1,3-propanediol], puromycin dihydrochloride, tRNA^Phe from E. coli, dimethyl sulfate (DMS), DMS stop solution and tRNA^Phe from E. coli were purchased from Sigma-Aldrich. Kethoxal and 1-cyclohexyl-3-(2-morpholinoethyl)-carbodiimide metho-p-toluene sulfate (CMCT) were from MP Biomedicals and Fluka Biochemicals, respectively. AMV reverse transcriptase was supplied by Roche, dNTPs by HT Biotechnology, and ddNTPs by Jena Bioscience. L-[2,3,4,5,6 -^3H]Phenylalanine was from Amersham Biosciences and [α-^32P]ATP from Izotop. Cellulose nitrate filters (type HA; 0.45 μm pore size) were from Millipore Corp. Details in experimental procedures of synthesis and physical and spectra data for the synthesized compounds will be published elsewhere. […] The mesothelioma cell line ZL34 and its immortalized counterpart cell line Met5A, were kindly provided by Prof. G. Stathopoulos (University of Patras).
as §1

[3] = test system: E. coli (A2503C) TA531 cells with pKK35 plasmid, mutated 23S rRNA; assay: as above; type: cell-based; conditions: Escherichia coli, read-out: IC50 (inhibit the growth by half)
Source text: as §2, §1

[4] = test system: central loop of Domain V of 23S rRNA, E. coli ribosomes; assay: Time-resolved footprinting of PA–CAM conjugates bound to ribosomes (DMS, kethoxal, CMCT probing, primer extension); type: binding
Procedure: Complexes RI and R*I were then probed at 37°C for 10 min with DMS, kethoxal or CMCT, as described previously ([30]). The modified sites in 23S rRNA were then analyzed by primer extension with reverse transcriptase, according to Moazed et al. ([30]). […] Extension products were run on 6% polyacrylamide/7M urea gels. Identification of the modified nucleotides, quantitative scanning of the gels and normalization of the band intensities were made as previously described ([4]). The values indicated in Table 2 denote the ratio between the normalized intensity of a band of interest and the normalized intensity of the corresponding band in the control lane (ribosomes non-treated with drugs).

[5] = early phase of the reaction (encounter complex CI)
[6] = late phase of the reaction (complex C*I)
[7] = R*I binding state (3 min), conjugate at 50 × Ki, 25°C, ratio to control lane R
[8] = RI binding state (2 s), conjugate at 50 × Ki, 25°C, ratio to control lane R

Compound | Ki [1, 5] [nM] | koff [1] [min⁻¹] | Ki [1, 6] [nM] | potency relative to CAM, based on Kik7/(k6 + k7) [1] | IC50 (wild-type E. coli) [µM] | IC50/IC50(puro) (wild-type E. coli) | IC50 (wild-type S. aureus) [µM] | IC50 [2] [µM] | IC50 [3] [µM] | further results
NCCCCNC(=O)CCC(=O)N[C@H](CO)[C@H](O)c1ccc([N+](=O)[O-])cc1 [Compound 1] | 3370 ± 300 | 1.05 ± 0.10 | 900 ± 60 | equal | > 200 | >37.0 | > 200 | > 200 | > 200 | –
O=C(CCNC(=O)c1nc[nH]n1)N[C@H](CO)[C@H](O)c1ccc([N+](=O)[O-])cc1 [Compound 9] | 12000 ± 1080 | 0.84 ± 0.08 | 4000 ± 440 | lower potency | > 200 | >8.3 | 66 ± 4.6 | > 200 | > 200 | –
O=C(CCC(=O)N[C@H](CO)[C@H](O)c1ccc([N+](=O)[O-])cc1)NCCCNCCCCN(Cc1ccccc1)Cc1ccccc1 [Compound 5] | 2100 ± 170 | 0.89 ± 0.08 | 600 ± 50 | 1.5 fold | – | 9.86 ± 1.29 | 13.7 ± 1.2 | 32.3 ± 3 | 37.1 ± 3.1 | Relative reactivity of nucleoside A2058 [4, 7]: 0.95 ± 0.08; Relative reactivity of nucleoside A2059 [4, 7]: 1.00 ± 0.08; Relative reactivity of nucleoside A2062 [4, 7]: 1.00 ± 0.09; Relative reactivity of nucleoside A2451 [4, 7]: 0.70 ± 0.05^b; Relative reactivity of nucleoside A2602 [4, 7]: 0.89 ± 0.07; Relative reactivity of nucleoside G2505 [4, 7]: 0.50 ± 0.15^b,c; Relative reactivity of nucleoside U2506 [4, 7]: 0.70 ± 0.06^b; Relative reactivity of nucleoside U2609 [4, 7]: 0.90 ± 0.08; Relative reactivity of nucleoside A2058 [4, 8]: 1.10 ± 0.09; Relative reactivity of nucleoside A2059 [4, 8]: 0.90 ± 0.08; Relative reactivity of nucleoside A2062 [4, 8]: 1.00 ± 0.06; Relative reactivity of nucleoside A2451 [4, 8]: 0.65 ± 0.04^b; Relative reactivity of nucleoside A2602 [4, 8]: 1.00 ± 0.06; Relative reactivity of nucleoside G2505 [4, 8]: 0.74 ± 0.06^b; Relative reactivity of nucleoside U2506 [4, 8]: 0.75 ± 0.05^b; Relative reactivity of nucleoside U2585 [4, 8]: 0.92 ± 0.10; Relative reactivity of nucleoside U2609 [4, 8]: 1.00 ± 0.10; IC50 (wild-type E. coli; WT-E. coli, LB medium, 37°C): 35.5 ± 3.6 µM
NCCCCN(CCCN)C(=O)CCC(=O)N[C@H](CO)[C@H](O)c1ccc([N+](=O)[O-])cc1 [Compound 3] | 3600 ± 300 | 1.26 ± 0.13 | 1200 ± 100 | lower potency | > 150 | >20.8 | 12.7 ± 1 | > 150 | > 150 | protection of U2585 against CMCT (footprinting) ([4]; 2 s or 3 min incubation, Supplementary Figure S6): fails to detect a similar protection
O=C(N[C@H](CO)[C@H](O)c1ccc([N+](=O)[O-])cc1)c1nc[nH]n1 [Compound 8] | 3000 ± 300 | 1.10 ± 0.12 | 1000 ± 100 | equal | > 300 | >50 | > 100 | > 300 | > 300 | –
NCCCNCCCCNCCCNC(=O)CCC(=O)N[C@H](CO)[C@H](O)c1ccc([N+](=O)[O-])cc1 [Compound 2] | 2200 ± 200 | 1.19 ± 0.16 | 750 ± 60 | equal | > 100 | >22.2 | 45.3 ± 5.5 | > 100 | > 100 | –
NCCCCNC(=O)c1ccccc1C(=O)N[C@H](CO)[C@H](O)c1ccc([N+](=O)[O-])cc1 [Compound 6] | 214000 ± 17100 | 0.75 ± 0.06 | 8450 ± 670 | lower potency | > 200 | – | > 200 | > 200 | > 200 | –
